Results on one compound are retold here after PubChem BioAssay (NCI).

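Growth conditions: 96-well plates. Treatment: test compound, 48 hours, 5 concentrations. Analysis: linear interpolation between bracketing concentrations; unreached endpoints set to highest concentration. GI50: concentration for 50% inhibition of growth. At the TGI there is no net growth.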

As a reminder, the GI50 is the concentration that inhibits growth by half. As usually defined, the TGI is the concentration giving total growth inhibition. Low readings indicate more potent growth arrest, high ones less potent growth arrest.

Test systems include M14 melanoma; SF-268 CNS; OVCAR-8 ovarian; NCI/ADR-RES ovarian; TK-10 renal; EKVX NSCLC; HCC-2998 colon; HT29 colon; SF-295 CNS; SK-MEL-2 melanoma.
Common to all, as to experiment: DTP human tumour cell line panel, 48 h

Take `COc1ccc(C(=O)/C=C/c2ccc(Cl)cc2)cc1S(=O)(=O)Nc1c(N)nc(SC)[nH]c1=O`: the GI50 in the experiment with M14 melanoma is 2 µM; in the experiment with SF-268 CNS, 2.69 µM; with OVCAR-8 ovarian it was 3.07 µM; with NCI/ADR-RES ovarian, 40.1 µM; with TK-10 renal it was 2.98 µM; in the experiment on EKVX NSCLC, 3.94 µM. Further, the GI50 in the experiment on HCC-2998 colon is 1.92 µM; in the experiment with HT29 colon, 2.93 µM; with SF-295 CNS, 2.72 µM; with SK-MEL-2 melanoma, 12.8 µM. Further, the TGI was 4.89 µM in the experiment with M14 melanoma; 7.32 µM in the experiment with SF-268 CNS; 9.56 µM with OVCAR-8 ovarian; above 100 µM in the experiment on NCI/ADR-RES ovarian; 9.44 µM in the experiment on TK-10 renal; 18.3 µM with EKVX NSCLC. Further, the TGI with HCC-2998 colon was found to be 3.53 µM; in the experiment with HT29 colon it was 7.93 µM; in the experiment with SF-295 CNS, 8.91 µM; in the experiment with SK-MEL-2 melanoma, 27.9 µM.
